Results published in patent US11001586B2, “Alkyl pyrrolopyrimidine analogs and methods of making and using same” (The University of North Carolina at Chapel Hill, priority 2016, dated 2021).

Tests used:
[1] = target: Mer tyrosine kinase (Homo sapiens (Human), UniProt Q12866); test: Evaluation of activity against Mer tyrosine kinase; assay type: biochemical
[2] = target: Tyro3 tyrosine kinase (Homo sapiens (Human), UniProt Q06418); test: Evaluation of activity against Tyro3 tyrosine kinase; assay type: biochemical
Chain of Tyro3 tyrosine kinase (Q06418 41-890): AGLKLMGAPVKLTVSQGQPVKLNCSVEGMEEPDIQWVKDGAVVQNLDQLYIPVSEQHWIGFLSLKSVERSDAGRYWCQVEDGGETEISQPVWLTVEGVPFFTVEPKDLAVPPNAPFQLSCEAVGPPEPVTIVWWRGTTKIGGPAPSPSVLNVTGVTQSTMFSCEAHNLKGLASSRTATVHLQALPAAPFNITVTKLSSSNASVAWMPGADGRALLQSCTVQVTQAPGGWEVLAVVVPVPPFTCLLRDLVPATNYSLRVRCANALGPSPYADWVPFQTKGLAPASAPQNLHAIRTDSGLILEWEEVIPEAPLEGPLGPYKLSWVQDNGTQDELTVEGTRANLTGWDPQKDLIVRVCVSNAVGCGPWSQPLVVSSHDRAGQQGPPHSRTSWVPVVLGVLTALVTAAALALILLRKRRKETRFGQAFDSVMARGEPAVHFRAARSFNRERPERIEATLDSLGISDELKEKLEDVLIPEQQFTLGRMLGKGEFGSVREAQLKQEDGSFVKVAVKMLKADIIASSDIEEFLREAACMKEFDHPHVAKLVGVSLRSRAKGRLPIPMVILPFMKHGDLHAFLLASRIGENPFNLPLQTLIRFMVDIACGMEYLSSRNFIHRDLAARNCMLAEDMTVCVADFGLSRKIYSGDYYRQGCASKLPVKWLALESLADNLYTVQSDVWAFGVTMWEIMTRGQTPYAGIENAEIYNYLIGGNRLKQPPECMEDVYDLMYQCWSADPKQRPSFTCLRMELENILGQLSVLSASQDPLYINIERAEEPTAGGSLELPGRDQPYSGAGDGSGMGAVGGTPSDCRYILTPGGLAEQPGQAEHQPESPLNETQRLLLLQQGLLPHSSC

Chain of Mer tyrosine kinase (Q12866 21-999): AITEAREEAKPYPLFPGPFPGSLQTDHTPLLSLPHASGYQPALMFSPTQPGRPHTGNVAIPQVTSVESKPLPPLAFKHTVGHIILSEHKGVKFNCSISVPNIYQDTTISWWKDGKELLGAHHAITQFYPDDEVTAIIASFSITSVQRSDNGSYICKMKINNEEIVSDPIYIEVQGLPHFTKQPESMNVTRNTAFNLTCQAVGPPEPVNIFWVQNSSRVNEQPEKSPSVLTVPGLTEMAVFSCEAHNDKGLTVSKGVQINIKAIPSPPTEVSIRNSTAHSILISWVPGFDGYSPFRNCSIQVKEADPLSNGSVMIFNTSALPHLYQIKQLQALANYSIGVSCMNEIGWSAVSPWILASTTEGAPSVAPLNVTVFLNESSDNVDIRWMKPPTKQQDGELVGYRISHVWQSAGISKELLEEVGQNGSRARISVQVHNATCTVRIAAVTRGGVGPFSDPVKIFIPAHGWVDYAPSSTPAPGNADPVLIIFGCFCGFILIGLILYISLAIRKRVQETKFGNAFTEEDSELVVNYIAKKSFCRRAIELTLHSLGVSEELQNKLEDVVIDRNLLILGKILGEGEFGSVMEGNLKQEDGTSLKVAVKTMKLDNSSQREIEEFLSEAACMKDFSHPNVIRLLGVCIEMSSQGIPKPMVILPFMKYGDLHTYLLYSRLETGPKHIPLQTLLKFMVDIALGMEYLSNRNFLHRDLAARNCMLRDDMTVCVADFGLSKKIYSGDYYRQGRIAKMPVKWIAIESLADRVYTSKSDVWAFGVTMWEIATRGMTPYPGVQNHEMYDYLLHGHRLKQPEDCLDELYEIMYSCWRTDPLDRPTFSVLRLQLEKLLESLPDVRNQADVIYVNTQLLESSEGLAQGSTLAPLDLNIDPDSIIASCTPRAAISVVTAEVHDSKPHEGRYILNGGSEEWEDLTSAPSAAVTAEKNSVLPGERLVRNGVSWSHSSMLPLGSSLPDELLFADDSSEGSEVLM

| Compound | IC50 [1] [µM] | IC50 [2] [µM] |
| --- | --- | --- |
| CCC[C@H](C)Nc1ncc2c(C3CCN(C(=O)CCOC)CC3)cn([C@H]3CC[C@H](O)CC3)c2n1 [compound 9, 1-(4-(7-((1R,4S)-4-hydroxycyclohexyl)-2-(((S)-pentan-2-yl)amino)-7H-pyrrolo[2,3-d]pyrimidin-5-yl)piperidin-1-yl)-3-methoxypropan-1-one] | < 0.01 | 0.1 to 1 |
| CCC[C@H](C)Nc1ncc2c(C3CCN(C(=O)C4CCNCC4)CC3)cn([C@H]3CC[C@H](O)CC3)c2n1 [compound 8, (4-(7-((1R,4S)-4-hydroxycyclohexyl)-2-(((S)-pentan-2-yl)amino)-7H-pyrrolo[2,3-d]pyrimidin-5-yl)piperidin-1-yl)(piperidin-4-yl)methanone] | < 0.01 | 0.01 to 0.1 |
| CCC[C@H](C)Nc1ncc2c(C3CCN(C(=O)[C@@H]4CCCCN4)CC3)cn([C@H]3CC[C@H](O)CC3)c2n1 [compound 19, (4-(7-((1R,4S)-4-hydroxycyclohexyl)-2-(((S)-pentan-2-yl)amino)-7H-pyrrolo[2,3-d]pyrimidin-5-yl)piperidin-1-yl)((S)-piperidin-2-yl)methanone] | < 0.01 | 0.01 to 0.1 |
| CC[C@H]1C[C@@H]1Nc1ncc2c(C3CCN(C(=O)c4ccncc4)CC3)cn([C@H]3CC[C@H](O)CC3)c2n1 [compound 42, (4-(2-(((1S,2S)-2-ethylcyclopropyl)amino)-7-((1R,4S)-4-hydroxycyclohexyl)-7H-pyrrolo[2,3-d]pyrimidin-5-yl)piperidin-1-yl)(pyridin-4-yl)methanone] | < 0.01 | 0.1 to 1 |
| CCC[C@H](C)Nc1ncc2c(C3CCN(C4CCN(C)CC4)CC3)cn([C@H]3CC[C@H](O)CC3)c2n1 [compound 52, (1S,4R)-4-(5-(1′-methyl-[1,4′-bipiperidin]-4-yl)-2-(((S)-pentan-2-yl)amino)-7H-pyrrolo[2,3-d]pyrimidin-7-yl)cyclohexan-1-ol] | < 0.01 | 0.01 to 0.1 |
| CCC(CC)CNc1ncc2c(C3CCN(C(=O)c4cc(C)nc(C)c4)CC3)cn([C@H]3CC[C@H](O)CC3)c2n1 [compound 69, (2,6-dimethylpyridin-4-yl)(4-(2-((2-ethylbutyl)amino)-7-((1r,4r)-4-hydroxycyclohexyl)-7H-pyrrolo[2,3-d]pyrimidin-5-yl)piperidin-1-yl)methanone] | < 0.01 | 0.01 to 0.1 |
| Cc1cc(C(=O)N2CCC(c3cn([C@H]4CC[C@H](O)CC4)c4nc(N[C@@H](C)c5ccc(F)cc5)ncc34)CC2)cc(C)n1 [compound 75, (2,6-dimethylpyridin-4-yl)(4-(2-(((S)-1-(4-fluorophenyl)ethyl)amino)-7-((1R,4S)-4-hydroxycyclohexyl)-7H-pyrrolo[2,3-d]pyrimidin-5-yl)piperidin-1-yl)methanone] | < 0.01 | 0.01 to 0.1 |
| CCC[C@H](C)Nc1ncc2c(C3CCN(C(=O)c4ccc(CNC)cc4)CC3)cn([C@H]3CC[C@H](O)CC3)c2n1 [compound 85, (4-(7-((1R,4S)-4-hydroxycyclohexyl)-2-(((S)-pentan-2-yl)amino)-7H-pyrrolo[2,3-d]pyrimidin-5-yl)piperidin-1-yl)(4-((methylamino)methyl)phenyl)methanone] | < 0.01 | 0.01 to 0.1 |
| CCC[C@H](C)Nc1ncc2c(C3CCN(C(=O)c4ccc(NC)cc4)CC3)cn([C@H]3CC[C@H](O)CC3)c2n1 [compound 83, (4-(7-((1R,4S)-4-hydroxycyclohexyl)-2-(((S)-pentan-2-yl)amino)-7H-pyrrolo[2,3-d]pyrimidin-5-yl)piperidin-1-yl)(4-(methylamino)phenyl)methanone] | < 0.01 | 0.01 to 0.1 |
| CCC[C@H](C)Nc1ncc2c(C3CCN(C(=O)c4ccc(Cl)cc4)CC3)cn([C@H]3CC[C@H](O)CC3)c2n1 [compound 84, (4-chlorophenyl)(4-(7-((1R,4S)-4-hydroxycyclohexyl)-2-(((S)-pentan-2-yl)amino)-7H-pyrrolo[2,3-d]pyrimidin-5-yl)piperidin-1-yl)methanone] | < 0.01 | 0.1 to 1 |
| CCC[C@H](C)Nc1ncc2c(C3CCN(C(=O)c4cc(F)cc(F)c4)CC3)cn([C@H]3CC[C@H](O)CC3)c2n1 [compound 81, (3,5-difluorophenyl)(4-(7-((1R,4S)-4-hydroxycyclohexyl)-2-(((S)-pentan-2-yl)amino)-7H-pyrrolo[2,3-d]pyrimidin-5-yl)piperidin-1-yl)methanone] | < 0.01 | 0.1 to 1 |
| CCC[C@H](C)Nc1ncc2c(C3CCN(C(=O)c4nccs4)CC3)cn([C@H]3CC[C@H](O)CC3)c2n1 [compound 57, (4-(7-((1R,4S)-4-hydroxycyclohexyl)-2-(((S)-pentan-2-yl)amino)-7H-pyrrolo[2,3-d]pyrimidin-5-yl)piperidin-1-yl)(thiazol-2-yl)methanone] | < 0.01 | 0.1 to 1 |
| CCC[C@H](C)Nc1ncc2c(C3CCN(C(=O)[C@@H]4CCCNC4)CC3)cn([C@H]3CC[C@H](O)CC3)c2n1 [compound 23, (4-(7-((1R,4S)-4-hydroxycyclohexyl)-2-(((S)-pentan-2-yl)amino)-7H-pyrrolo[2,3-d]pyrimidin-5-yl)piperidin-1-yl)((R)-piperidin-3-yl)methanone] | < 0.01 | 0.01 to 0.1 |
| CC[C@@H]1C[C@H]1Nc1ncc2c(C3CCN(C(=O)c4ccncc4)CC3)cn([C@H]3CC[C@H](O)CC3)c2n1 [compound 43, (4-(2-(((1R,2R)-2-ethylcyclopropyl)amino)-7-((1R,4R)-4-hydroxycyclohexyl)-7H-pyrrolo[2,3-d]pyrimidin-5-yl)piperidin-1-yl)(pyridin-4-yl)methanone] | < 0.01 | 0.1 to 1 |
| CCC[C@H](C)Nc1ncc2c(C3CCN(C(=O)c4ncc[nH]4)CC3)cn([C@H]3CC[C@H](O)CC3)c2n1 [compound 62, (4-(7-((1r,4S)-4-hydroxycyclohexyl)-2-(((S)-pentan-2-yl)amino)-7H-pyrrolo[2,3-d]pyrimidin-5-yl)piperidin-1-yl)(1H-imidazol-2-yl)methanone] | < 0.01 | 0.1 to 1 |
| Cc1cc(C(=O)N2CCC(c3cn([C@H]4CC[C@H](O)CC4)c4nc(NCCC5CC5)ncc34)CC2)cc(C)n1 [compound 72, (4-(2-((2-cyclopropylethyl)amino)-7-((1R,4R)-4-hydroxycyclohexyl)-7H-pyrrolo[2,3-d]pyrimidin-5-yl)piperidin-1-yl)(2,6-dimethylpyridin-4-yl)methanone] | < 0.01 | 0.1 to 1 |
| CCC[C@H](C)Nc1ncc2c(C3CCN(C(=O)c4ccc(CN(C)C)cc4)CC3)cn([C@H]3CC[C@H](O)CC3)c2n1 [compound 87, (4-((dimethylamino)methyl)phenyl)(4-(7-((1R,4S)-4-hydroxycyclohexyl)-2-(((S)-pentan-2-yl)amino)-7H-pyrrolo[2,3-d]pyrimidin-5-yl)piperidin-1-yl)methanone] | < 0.01 | 0.01 to 0.1 |
| CCC[C@H](C)Nc1ncc2c(C3CCN(C(=O)c4ccc(N)cc4)CC3)cn([C@H]3CC[C@H](O)CC3)c2n1 [compound 82, (4-aminophenyl)(4-(7-((1R,4S)-4-hydroxycyclohexyl)-2-(((S)-pentan-2-yl)amino)-7H-pyrrolo[2,3-d]pyrimidin-5-yl)piperidin-1-yl)methanone] | < 0.01 | 0.1 to 1 |
| CCC[C@H](C)Nc1ncc2c(C3CCN(C(=O)c4cc(C)nc(C)c4)CC3)cn([C@H]3CC[C@H](N)CC3)c2n1 [compound 95, (4-(7-((1R,4S)-4-aminocyclohexyl)-2-(((S)-pentan-2-yl)amino)-7H-pyrrolo[2,3-d]pyrimidin-5-yl)piperidin-1-yl)(2,6-dimethylpyridin-4-yl)methanone] | < 0.01 | 0.01 to 0.1 |
| Cc1cc(C(=O)N2CCC(c3cn([C@H]4CC[C@H](O)CC4)c4nc(NCCCC(F)(F)F)ncc34)CC2)cc(C)n1 [compound 101, (2,6-dimethylpyridin-4-yl)(4-(7-((1r,4r)-4-hydroxycyclohexyl)-2-((4,4,4-trifluorobutyl)amino)-7H-pyrrolo[2,3-d]pyrimidin-5-yl)piperidin-1-yl)methanone] | < 0.01 | 1 to 30 |
| CCC[C@H](C)Nc1ncc2c(C3CCN(S(=O)(=O)CCOC)CC3)cn([C@H]3CC[C@H](O)CC3)c2n1 [compound 4, (1S,4R)-4-(5-(1-((2-methoxyethyl)sulfonyl)piperidin-4-yl)-2-(((S)-pentan-2-yl)amino)-7H-pyrrolo[2,3-d]pyrimidin-7-yl)cyclohexan-1-ol] | < 0.01 | 0.1 to 1 |
| CCC[C@H](C)Nc1ncc2c(C3CCN(C(=O)c4cc(C)nc(C)c4)CC3)cn([C@H]3CC[C@H](C(F)F)CC3)c2n1 [compound 88, (4-(7-((1R,4S)-4-(difluoromethyl)cyclohexyl)-2-(((S)-pentan-2-yl)amino)-7H-pyrrolo[2,3-d]pyrimidin-5-yl)piperidin-1-yl)(2,6-dimethylpyridin-4-yl)methanone] | < 0.01 | 0.1 to 1 |
| CCC[C@H](C)Nc1ncc2c(C3CCN(C(=O)c4cncs4)CC3)cn([C@H]3CC[C@H](O)CC3)c2n1 [compound 59, (4-(7-((1R,4S)-4-hydroxycyclohexyl)-2-(((S)-pentan-2-yl)amino)-7H-pyrrolo[2,3-d]pyrimidin-5-yl)piperidin-1-yl)(thiazol-5-yl)methanone] | < 0.01 | 0.01 to 0.1 |
| CCC[C@H](C)Nc1ncc2c(C3CCN(C(=O)c4cc[nH]c4)CC3)cn([C@H]3CC[C@H](O)CC3)c2n1 [compound 61, (4-(7-((1R,4S)-4-hydroxycyclohexyl)-2-(((S)-pentan-2-yl)amino)-7H-pyrrolo[2,3-d]pyrimidin-5-yl)piperidin-1-yl)(1H-pyrrol-3-yl)methanone] | < 0.01 | 0.1 to 1 |
| CCC[C@H](C)Nc1ncc2c(C3CCN(C(=O)c4ccc(OC)cc4)CC3)cn([C@H]3CC[C@H](O)CC3)c2n1 [compound 31, (4-(7-((1R,4S)-4-hydroxycyclohexyl)-2-(((S)-pentan-2-yl)amino)-7H-pyrrolo[2,3-d]pyrimidin-5-yl)piperidin-1-yl)(4-methoxyphenyl)methanone] | < 0.01 | 0.1 to 1 |
